The subject of this assay is BDF1 mice, P388 leukemia ip, median survival T/C. Briefly: NCI In Vivo Anticancer Drug Screen. Data for tumor model P388 Leukemia (intraperitoneal) in B6D2F1 (BDF1) mice. The following applies: endpoint: median survival time, higher = longer survival. Put shortly: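 Steps: implant the tumour, treat one group with compound and another with vehicle, record survival, then divide treated by control.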

[1] abbreviates: dose: 25.0 mg/kg/injection, schedule: Q04DX003 (ip), vehicle: Klucel (hydroxypropylcellulose) (HPC).
[2] abbreviates: dose: 50.0 mg/kg/injection, schedule: Q04DX003 (ip), vehicle: Klucel (hydroxypropylcellulose) (HPC).
Setting [3] is: dose: 12.5 mg/kg/injection, schedule: Q01DX009 (ip), vehicle: Klucel (hydroxypropylcellulose) (HPC).
The mark [4] stands for this setting: dose: 25.0 mg/kg/injection, schedule: Q01DX009 (ip), vehicle: Klucel (hydroxypropylcellulose) (HPC).
Setting [5] is: dose: 50.0 mg/kg/injection, schedule: Q01DX009 (ip), vehicle: Klucel (hydroxypropylcellulose) (HPC).
[6] abbreviates: dose: 25.0 mg/kg/injection, schedule: Q04DX003 (ip), vehicle: saline.
The mark [7] stands for this setting: dose: 50.0 mg/kg/injection, schedule: Q04DX003 (ip), vehicle: saline.
Setting [8] is: dose: 100.0 mg/kg/injection, schedule: Q04DX003 (ip), vehicle: saline.
[9] abbreviates: dose: 6.25 mg/kg/injection, schedule: Q01DX009 (ip), vehicle: saline.
Setting [10] is: dose: 50.0 mg/kg/injection, schedule: Q01DX009 (ip), vehicle: saline with Tween-80.
Where [11] appears, read: dose: 100.0 mg/kg/injection, schedule: Q01DX009 (ip), vehicle: saline with Tween-80.
The mark [12] stands for this setting: dose: 6.25 mg/kg/injection, schedule: Q01DX009 (ip), vehicle: Klucel (hydroxypropylcellulose) (HPC).
[13] abbreviates: dose: 200.0 mg/kg/injection, schedule: Q04DX003 (ip), vehicle: saline.
Setting [14] is: dose: 200.0 mg/kg/injection, schedule: Q01DX009 (ip), vehicle: saline with Tween-80.

Each structure is given as a SMILES string. “And” between values parts separate entries of the source, which are not always exact repeats. Equal values may be shown once. Inconclusive results and toxic doses are left out.

In PubChem BioAssay AID328 (DTP/NCI, 2004) one finds T/C data, which are given here for 17 compounds.

Regarding `CC(C)=CCC/C(C)=C/CN1C(=O)CC(C)=C(C)C1=O`, the T/C is, setting by setting: (dose: 100.0 mg/kg/injection, schedule: Q04DX003 (ip), vehicle: saline with Tween-80) 100 % of control; (dose: 200.0 mg/kg/injection, schedule: Q04DX003 (ip), vehicle: saline with Tween-80) 100 % of control; (dose: 400.0 mg/kg/injection, schedule: Q04DX003 (ip), vehicle: saline with Tween-80) 104 % of control.

Take `CC(CC(=O)O)C(C(=O)O)C(=O)O` (stereo not drawn): the T/C reads like this: (dose: 6.25 mg/kg/injection, schedule: Q04DX003 (ip), vehicle: Klucel (hydroxypropylcellulose) (HPC)) 94 % of control; (dose: 6.25 mg/kg/injection, schedule: Q04DX003 (ip), vehicle: water) 107 % of control; (dose: 12.5 mg/kg/injection, schedule: Q01DX009 (ip), vehicle: water) 108 % of control; (dose: 12.5 mg/kg/injection, schedule: Q04DX003 (ip), vehicle: Klucel (hydroxypropylcellulose) (HPC)) 92 % of control; (dose: 12.5 mg/kg/injection, schedule: Q04DX003 (ip), vehicle: water) 95 % of control and 105 % of control; (dose: 25.0 mg/kg/injection, schedule: Q01DX009 (ip), vehicle: water) 107 % of control. Besides, the T/C is, setting by setting: under setting [1], 92 % of control; (dose: 25.0 mg/kg/injection, schedule: Q04DX003 (ip), vehicle: water) 266 % of control and 94 % of control and 110 % of control; under setting [2], 90 % of control; (dose: 50.0 mg/kg/injection, schedule: Q04DX003 (ip), vehicle: water) 266 % of control and 95 % of control and 117 % of control; (dose: 100.0 mg/kg/injection, schedule: Q01DX009 (ip), vehicle: water) 100 % of control; (dose: 100.0 mg/kg/injection, schedule: Q04DX003 (ip), vehicle: Klucel (hydroxypropylcellulose) (HPC)) 91 % of control. Further, the T/C (dose: 100.0 mg/kg/injection, schedule: Q04DX003 (ip), vehicle: water) was 86 % of control and 95 % of control and 100 % of control; the T/C (dose: 200.0 mg/kg/injection, schedule: Q01DX009 (ip), vehicle: water) was 91 % of control; the T/C (dose: 200.0 mg/kg/injection, schedule: Q04DX003 (ip), vehicle: Klucel (hydroxypropylcellulose) (HPC)) is 90 % of control; the T/C (dose: 200.0 mg/kg/injection, schedule: Q04DX003 (ip), vehicle: water) was 101 % of control and 111 % of control; the T/C (dose: 400.0 mg/kg/injection, schedule: Q01DX009 (ip), vehicle: water) was 91 % of control.

Consider `CCSc1nc2ccc(Nn3nnnc3-c3ccccc3)cc2s1`, for which the T/C is 272 % of control under setting [3], 98 % of control under setting [4] and 118 % of control under setting [5].

Regarding `CN1CCC(=C(C#N)C#N)CC1`, the T/C reads like this: under setting [6], 95 % of control; under setting [7], 100 % of control; under setting [8], 100 % of control.

Regarding `CC(C)C([NH-])=O.CC(C)C([NH-])=O.[Cl][Pt+2][Cl]`, the T/C runs as follows: (dose: 3.12 mg/kg/injection, schedule: Q01DX009 (ip), vehicle: saline) 93 % of control; under setting [9], 101 % of control and 118 % of control; (dose: 12.5 mg/kg/injection, schedule: Q01DX009 (ip), vehicle: saline) 87 % of control and 117 % of control; (dose: 25.0 mg/kg/injection, schedule: Q01DX009 (ip), vehicle: saline) 87 % of control and 112 % of control and 123 % of control; under setting [6], 118 % of control; (dose: 50.0 mg/kg/injection, schedule: Q01DX009 (ip), vehicle: saline) 95 % of control. For the same compound, the T/C was 116 % of control under setting [7]; 93 % of control and 112 % of control (dose: 100.0 mg/kg/injection, schedule: Q01DX009 (ip), vehicle: saline); 114 % of control under setting [8].

Consider `O=C(NC(=O)c1c(F)cccc1F)Nc1ccc(OCc2ccccc2)cc1`, for which the T/C is, setting by setting: under setting [10], 93 % of control; under setting [11], 86 % of control.

In the case of `NC1=NC(=S)C2N=C(N=Nc3ccc(C(=O)NC(CCC(=O)O)C(=O)O)cc3)N=C2N1` (stereo not drawn), the T/C (dose: 1.56 mg/kg/injection, schedule: Q01DX009 (ip), vehicle: Klucel (hydroxypropylcellulose) (HPC)) is 120 % of control; the T/C (dose: 3.13 mg/kg/injection, schedule: Q01DX009 (ip), vehicle: Klucel (hydroxypropylcellulose) (HPC)) was 91 % of control; the T/C under setting [12] is 87 % of control; the T/C under setting [1] is 120 % of control; the T/C under setting [2] was 112 % of control.

As to `NNc1nc2c(N)ncnc2n1C1OC(CO)C(O)C1O` (stereo not drawn), the T/C runs as follows: under setting [7], 108 % of control; under setting [8], 115 % of control; under setting [13], 101 % of control; (dose: 400.0 mg/kg/injection, schedule: Q04DX003 (ip), vehicle: saline) 116 % of control.

In the case of `CCOC(=O)C1=C(C)NC(C)=C(C(=O)OCC)C1c1ccc([N+](=O)[O-])s1`, the T/C by setting is: under setting [10], 106 % of control; under setting [11], 99 % of control.

`CCCCOB(CI)OCCCC`: the T/C is 95 % of control (dose: 1.56 mg/kg/injection, schedule: Q01DX009 (ip), vehicle: saline); 109 % of control (dose: 3.13 mg/kg/injection, schedule: Q01DX009 (ip), vehicle: saline); 89 % of control and 109 % of control under setting [9].

`C=CCOc1c(C)cc(C(C)(C)c2cc(C)c(OCC=C)c(C)c2)cc1C`: the T/C was 104 % of control (dose: 25.0 mg/kg/injection, schedule: Q01DX001 (ip), vehicle: other); 109 % of control (dose: 50.0 mg/kg/injection, schedule: Q01DX001 (ip), vehicle: other); 95 % of control (dose: 100.0 mg/kg/injection, schedule: Q01DX001 (ip), vehicle: other).

Take `COC(=O)[C@@]12OC[C@]34[C@H]([C@@H](O)[C@@H]1O)[C@@]1(C)CC(=O)C(OC(=O)CC(=O)OC5=C(C)[C@@H]6C[C@H]7OC(=O)[C@H](OC(=O)C=C(C)C)[C@H]8[C@]9(C(=O)OC)OC[C@]78[C@H]([C@@H](O)[C@@H]9O)[C@@]6(C)CC5=O)=C(C)[C@@H]1C[C@H]3OC(=O)[C@H](OC(=O)C=C(C)C)[C@@H]24`: the T/C is 104 % of control (dose: 0.18 mg/kg/injection, schedule: Q01DX009 (ip), vehicle: distilled water + Tween-80); 104 % of control (dose: 0.37 mg/kg/injection, schedule: Q01DX009 (ip), vehicle: distilled water + Tween-80); 100 % of control (dose: 0.75 mg/kg/injection, schedule: Q01DX009 (ip), vehicle: distilled water + Tween-80); 98 % of control (dose: 1.5 mg/kg/injection, schedule: Q01DX009 (ip), vehicle: distilled water + Tween-80); 111 % of control (dose: 3.0 mg/kg/injection, schedule: Q01DX009 (ip), vehicle: distilled water + Tween-80).

On to `CCCCCCCCN(C)N=Nc1ccc(Cl)cc1C(=O)O`, for which the T/C was 94 % of control under setting [11]; 116 % of control under setting [14]; 88 % of control (dose: 400.0 mg/kg/injection, schedule: Q01DX009 (ip), vehicle: saline with Tween-80).

Take `CCCCC(=O)NN(Cn1c(=S)sc2ccccc21)Cn1c(=S)sc2ccccc21`: the T/C under setting [3] is 109 % of control, the T/C under setting [4] is 109 % of control and the T/C under setting [5] is 272 % of control.

Take `N#Cc1cccc(C[P+](c2ccccc2)(c2ccccc2)c2ccccc2)c1`: the T/C is 86 % of control under setting [12]; 95 % of control under setting [3]; 95 % of control and 104 % of control (dose: 17.0 mg/kg/injection, schedule: Q04DX003 (ip), vehicle: Klucel (hydroxypropylcellulose) (HPC)); 104 % of control under setting [4]; 86 % of control (dose: 35.0 mg/kg/injection, schedule: Q01DX009 (ip), vehicle: Klucel (hydroxypropylcellulose) (HPC)); 95 % of control and 100 % of control (dose: 40.0 mg/kg/injection, schedule: Q04DX003 (ip), vehicle: Klucel (hydroxypropylcellulose) (HPC)). Further, where the note is “dose: 52.5 mg/kg/injection, schedule: Q04DX003 (ip), vehicle: Klucel (hydroxypropylcellulose) (HPC)”, the T/C is 115 % of control.

`C=C(C)CC#N`: the T/C reads like this: under setting [7], 100 % of control; under setting [8], 109 % of control; under setting [13], 109 % of control.

As for `OC(CNc1ccc(Cl)c(Cl)c1)COc1ccc(Cl)cc1Cl` (stereo not drawn), the T/C runs as follows: under setting [10], 101 % of control; under setting [11], 101 % of control; under setting [14], 104 % of control.
